Measurements from ChEMBL document CHEMBL5625220, “Discovery of anti-neuroinflammatory agents from 1,4,5,6-tetrahydrobenzo[2,3]oxepino[4,5-d]pyrimidin-2-amine derivatives by regulating microglia polarization” (Eur J Med Chem, 2023).
Active and inactive are the calls of the source. The rule behind the calls is not given here.

Key:
BV-2 [1] = experiment: Anti-inflammatory activity in mouse BV-2 cells assessed as inhibition of LPS-induced TNF-alpha production at 2.5 ug/ml preincubated with LPS for 2 hrs followed by compound addition and measured after 24 hrs by ELISA relative to control; type: functional
[2] = Cytotoxicity against mouse BV-2 cells assessed as survival rate at 5 uM incubated for 24 hrs by CCK8 assay relative to control; type: toxicity, cell-based; conditions: read-out: Survival
BV-2 [3] = experiment: Anti-inflammatory activity in mouse BV-2 cells assessed as inhibition of LPS-induced TNF-alpha production at 5 uM preincubated with LPS for 2 hrs followed by compound addition and measured after 24 hrs by ELISA relative to control; type: functional
BV-2 [4] = experiment: Effect on ASC expression in mouse BV-2 cells incubated for 24 hrs by Western blot analysis; type: functional, cell-based
BV-2 [5] = experiment: Anti-neuroinflammatory activity in LPS-induced mouse BV-2 cells assessed as decrease in TNF-alpha secretion preincubated with LPS for 2 hrs followed by compound addition and measured after 24 hrs by ELISA; type: functional, cell-based
Mus musculus [6] = experiment: Anti-inflammatory activity in cuprizone fed C57BL/6 mouse model assessed as decrease in iNOS expression in corpus callosum at 5 mg/kg, ip pretreated with cuprizone for 6 weeks followed by compound administration for 2 weeks by immunofluorescence staining based confocal microscopic analysis; type: functional, organism-based
BV-2 [7] = experiment: Effect on IL-1beta expression in mouse BV-2 cells incubated for 24 hrs by ELISA; type: functional, cell-based
BV-2 [8] = experiment: Downregulation of PKM2 expression in LPS-stimulated mouse BV-2 cells preincubated with LPS for 2 hrs followed by compound addition and measured after 24 hrs by immunofluorescence staining based confocal microscopic analysis; type: functional, cell-based
BV-2 [9] = experiment: Effect on caspase-1 expression in mouse BV-2 cells incubated for 24 hrs by Western blot analysis; type: functional, cell-based
BV-2 [10] = experiment: Anti-neuroinflammatory activity in LPS-induced mouse BV-2 cells assessed as decrease in CD86 labeled microglial cells preincubated with LPS for 2 hrs followed by compound addition and measured after 24 hrs by flow cytometric analysis; type: functional, cell-based
[11] = biological target: NACHT, LRR and PYD domains-containing protein 3 (Mus musculus) (UniProt Q8R4B8); experiment: Inhibition of NLRP3 inflammasome formation in LPS-stimulated mouse BV-2 cells assessed as downregulation of ASC protein expression preincubated with LPS for 2 hrs followed by compound addition and measured after 24 hrs by Western blot analysis; type: cell-based
NACHT, LRR and PYD domains-containing protein 3 (Mus musculus), sequence (Q8R4B8 whole entry, the tested form may be a part): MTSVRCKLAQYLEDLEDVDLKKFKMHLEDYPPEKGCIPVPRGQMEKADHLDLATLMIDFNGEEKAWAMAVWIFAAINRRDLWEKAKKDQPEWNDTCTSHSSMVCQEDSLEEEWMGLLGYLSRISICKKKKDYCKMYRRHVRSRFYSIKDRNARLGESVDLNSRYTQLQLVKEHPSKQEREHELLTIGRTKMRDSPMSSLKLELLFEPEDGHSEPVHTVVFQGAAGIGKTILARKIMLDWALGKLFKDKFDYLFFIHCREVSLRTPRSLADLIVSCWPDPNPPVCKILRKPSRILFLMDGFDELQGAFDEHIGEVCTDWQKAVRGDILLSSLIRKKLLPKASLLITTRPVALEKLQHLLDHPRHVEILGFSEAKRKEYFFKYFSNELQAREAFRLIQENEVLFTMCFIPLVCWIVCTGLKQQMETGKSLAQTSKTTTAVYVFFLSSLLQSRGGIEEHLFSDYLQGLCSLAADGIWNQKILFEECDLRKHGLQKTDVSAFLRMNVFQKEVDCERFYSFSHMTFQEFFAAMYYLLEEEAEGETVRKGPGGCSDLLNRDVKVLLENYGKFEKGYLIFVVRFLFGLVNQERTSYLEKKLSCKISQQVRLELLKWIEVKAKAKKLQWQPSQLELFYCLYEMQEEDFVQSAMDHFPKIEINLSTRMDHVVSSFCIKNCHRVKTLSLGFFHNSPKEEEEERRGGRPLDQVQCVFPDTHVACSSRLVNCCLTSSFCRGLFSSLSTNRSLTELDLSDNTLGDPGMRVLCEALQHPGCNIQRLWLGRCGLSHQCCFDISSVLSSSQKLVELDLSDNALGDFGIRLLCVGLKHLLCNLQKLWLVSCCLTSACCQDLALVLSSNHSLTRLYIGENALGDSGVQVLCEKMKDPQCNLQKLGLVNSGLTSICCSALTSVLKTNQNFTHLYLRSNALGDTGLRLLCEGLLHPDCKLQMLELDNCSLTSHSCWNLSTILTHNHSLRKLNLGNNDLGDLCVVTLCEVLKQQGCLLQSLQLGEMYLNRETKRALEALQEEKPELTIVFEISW

BV-2 [12] = experiment: (§1) Anti-neuroinflammatory activity in mouse BV-2 cells assessed as microglial polarization into M2 phenotype by measuring increase in CD206 expression preincubated with LPS for 2 hrs followed by compound addition and measured after 24 hrs by immunofluorescence staining based confocal microscopic analysis; type: functional, cell-based
BV-2 [13] = experiment: Anti-neuroinflammatory activity in LPS-induced mouse BV-2 cells assessed as decrease in iNOS labeled microglial cells preincubated with LPS for 2 hrs followed by compound addition and measured after 24 hrs by flow cytometric analysis; type: functional, cell-based
BV-2 [14] = experiment: Anti-neuroinflammatory activity in LPS-induced mouse BV-2 cells assessed as decrease in IL-18 secretion preincubated with LPS for 2 hrs followed by compound addition and measured after 24 hrs by ELISA; type: functional, cell-based
BV-2 [15] = experiment: Anti-neuroinflammatory activity in LPS-induced mouse BV-2 cells assessed as decrease in IL-1beta secretion preincubated with LPS for 2 hrs followed by compound addition and measured after 24 hrs by ELISA; type: functional, cell-based
[16] = biological target: NACHT, LRR and PYD domains-containing protein 3 (Mus musculus) (UniProt Q8R4B8); experiment: Inhibition of NLRP3 inflammasome formation in LPS-stimulated mouse BV-2 cells assessed as downregulation of caspase-1 protein expression preincubated with LPS for 2 hrs followed by compound addition and measured after 24 hrs by Western blot analysis; type: cell-based
BV-2 [17] = experiment: Induction of microglial polarization to M2 phenotype in mouse BV-2 cells assessed as decrease in number of M1 phenotype microglial cells incubated for 24 hrs by flow cytometric analysis; type: functional, cell-based
BV-2 [18] = experiment: Anti-neuroinflammatory activity in LPS-induced mouse BV-2 cells assessed as increase in IL-10 secretion preincubated with LPS for 2 hrs followed by compound addition and measured after 24 hrs by ELISA; type: functional, cell-based
BV-2 [19] = experiment: Downregulation of PKM2 expression in LPS-stimulated mouse BV-2 cells preincubated with LPS for 2 hrs followed by compound addition and measured after 24 hrs by Western blot analysis; type: functional, cell-based
BV-2 [20] = experiment: Anti-neuroinflammatory activity in LPS-induced mouse BV-2 cells assessed as increase in Arg-1 labeled microglial cells preincubated with LPS for 2 hrs followed by compound addition and measured after 24 hrs by flow cytometric analysis; type: functional, cell-based
BV-2 [21] = experiment: Induction of microglial polarization to M2 phenotype in mouse BV-2 cells assessed as increase in number of M2 phenotype microglial cells incubated for 24 hrs by flow cytometric analysis; type: functional, cell-based
Mus musculus [22] = experiment: Anti-inflammatory activity in cuprizone fed C57BL/6 mouse model assessed as increase in CD206 expression in corpus callosum at 5 mg/kg, ip pretreated with cuprizone for 6 weeks followed by compound administration for 2 weeks by immunofluorescence staining based confocal microscopic analysis; type: functional, organism-based
BV-2 [23] = experiment: Effect on IL-18 expression in mouse BV-2 cells incubated for 24 hrs by ELISA; type: functional, cell-based
BV-2 [24] = experiment: Effect on IL-10 expression in mouse BV-2 cells incubated for 24 hrs by ELISA; type: functional, cell-based
[25] = biological target: NACHT, LRR and PYD domains-containing protein 3 (Mus musculus) (UniProt Q8R4B8); experiment: Inhibition of NLRP3 inflammasome formation in LPS-stimulated mouse BV-2 cells assessed as downregulation of NLRP3 protein expression preincubated with LPS for 2 hrs followed by compound addition and measured after 24 hrs by Western blot analysis; type: cell-based
BV-2 [26] = experiment: Effect on NLRP3 expression in mouse BV-2 cells incubated for 24 hrs by Western blot analysis; type: functional, cell-based
BV-2 [27] = experiment: as §1, with “decrease” for “increase”, “iNOS” for “CD206”; type: functional, cell-based
BV-2 [28] = experiment: Anti-neuroinflammatory activity in LPS-induced mouse BV-2 cells assessed as increase in CD206 labeled microglial cells preincubated with LPS for 2 hrs followed by compound addition and measured after 24 hrs by flow cytometric analysis; type: functional, cell-based
BV-2 [29] = experiment: Effect on TNF-alpha expression in mouse BV-2 cells incubated for 24 hrs by ELISA; type: functional, cell-based
Mus musculus [30] = experiment: Anti-inflammatory activity in cuprizone fed C57BL/6 mouse model assessed as increase in remyelination in corpus callosum at 5 mg/kg, ip pretreated with cuprizone for 6 weeks followed by compound administration for 2 weeks by LFB staining based analysis; type: functional, organism-based

S=C(S)N1CCCC1 [PYRROLIDINE DITHIOCARBAMATE]
inhibition at 2.5 µg/mL (BV-2 [1]): 58.4%

COc1cc(OC)c2c(c1)OCCC(C(O)c1cccc(C(F)(F)F)c1)C2=O (stereo unspecified)
viability at 24 h, 5 µM [2]: 150% | inhibition at 5 µM (BV-2 [3]): 65.1%

COc1cc(OC)c2c(c1)OCCC1=C2NC(N)=NC1c1cccc(F)c1 (stereo unspecified)
viability at 24 h, 5 µM [2]: 120% | inhibition at 5 µM (BV-2 [3]): 74.3%

COc1cc(OC)c2c(c1)OCCC1=C2NC(N)=NC1c1cc(F)ccc1F (stereo unspecified)
viability at 24 h, 5 µM [2]: 156% | inhibition at 5 µM (BV-2 [3]): 73.5%

COc1cc(OC)c2c(c1)OCCC1=C2NC(N)=NC1c1c(F)cccc1C(F)(F)F (stereo unspecified)
viability at 24 h, 5 µM [2]: 124% | inhibition at 5 µM (BV-2 [3]): 65.7%

COc1cc(OC)c2c(c1)OCC/C(=C\c1cccc(F)c1)C2=O
viability at 24 h, 5 µM [2]: 146% | inhibition at 5 µM (BV-2 [3]): 69.3%

COc1cc(OC)c2c(c1)OCC/C(=C\c1cc(F)ccc1F)C2=O
viability at 24 h, 5 µM [2]: 168% | inhibition at 5 µM (BV-2 [3]): 74.1%

COc1cc(OC)c2c(c1)OCCC1=C2NC(N)=NC1c1cc(F)cc(F)c1 (stereo unspecified)
viability at 24 h, 5 µM [2]: 128% | inhibition at 5 µM (BV-2 [3]): 76.8%

COc1cc(OC)c2c(c1)OCCC1=C2NC(N)=NC1c1cccc(C(F)(F)F)c1 (stereo unspecified)
viability at 24 h, 5 µM [2]: 109% | inhibition at 5 µM (BV-2 [3]): 82.6%

COc1cc(OC)c2c(c1)OCCC1=C2NC(N)=NC1c1cccc(C(F)(F)F)c1F (stereo unspecified)
viability at 24 h, 5 µM [2]: 111% | inhibition at 5 µM (BV-2 [3]): 91.5%

COc1cc(OC)c2c(c1)OCCC1=C2NC(N)=NC1c1cccc(F)c1C(F)(F)F (stereo unspecified)
viability at 24 h, 5 µM [2]: 95.4% | inhibition at 5 µM (BV-2 [3]): 72.3%

COc1cc(OC)c2c(c1)OCC/C(=C\c1c(F)cccc1C(F)(F)F)C2=O
viability at 24 h, 5 µM [2]: 116% | inhibition at 5 µM (BV-2 [3]): 36.8%

COc1cc(OC)c2c(c1)OCC/C(=C\c1cc(C(F)(F)F)cc(C(F)(F)F)c1)C2=O
viability at 24 h, 5 µM [2]: 95% | inhibition at 5 µM (BV-2 [3]): 88.6%

COc1cc(OC)c2c(c1)OCC/C(=C\c1ccccc1F)C2=O
viability at 24 h, 5 µM [2]: 146% | inhibition at 5 µM (BV-2 [3]): 62.1%

COc1cc(OC)c2c(c1)OCC/C(=C\c1ccc(F)cc1)C2=O
viability at 24 h, 5 µM [2]: 148% | inhibition at 5 µM (BV-2 [3]): 46.3%

COc1cc(OC)c2c(c1)OCCC1=C2NC(N)=NC1c1cc(C(F)(F)F)cc(C(F)(F)F)c1 (stereo unspecified)
Activity (BV-2 [4]): inactive | Activity (BV-2 [5]): Active | Activity (Mus musculus [6]): Active | Activity (BV-2 [7]): inactive | Activity (BV-2 [8]): Active | Activity (BV-2 [9]): inactive | viability at 24 h, 5 µM [2]: 151% | Activity (BV-2 [10]): Active | inhibition [11]: Active | Activity (BV-2 [12]): Active | Activity (BV-2 [13]): Active | Activity (BV-2 [14]): Active | Activity (BV-2 [15]): Active | inhibition [16]: Active | Activity (BV-2 [17]): inactive | Activity (BV-2 [18]): Active | Activity (BV-2 [19]): Active | Activity (BV-2 [20]): Active | Activity (BV-2 [21]): Active | Activity (Mus musculus [22]): Active | Activity (BV-2 [23]): inactive | Activity (BV-2 [24]): inactive | inhibition [25]: Active | Activity (BV-2 [26]): inactive | Activity (BV-2 [27]): Active | Activity (BV-2 [28]): Active | Activity (BV-2 [29]): inactive | inhibition at 5 µM (BV-2 [3]): 94.5% | Activity (Mus musculus [30]): Active

COc1cc(OC)c2c(c1)OCC/C(=C\c1cccc(C(F)(F)F)c1F)C2=O
viability at 24 h, 5 µM [2]: 117% | inhibition at 5 µM (BV-2 [3]): 88.7%

COc1cc(OC)c2c(c1)OCCC1=C2NC(N)=NC1c1ccc(F)cc1C(F)(F)F (stereo unspecified)
viability at 24 h, 5 µM [2]: 87.4% | inhibition at 5 µM (BV-2 [3]): 66.4%

COc1cc(OC)c2c(c1)OCC/C(=C\c1ccc(C(F)(F)F)cc1)C2=O
viability at 24 h, 5 µM [2]: 145% | inhibition at 5 µM (BV-2 [3]): 65.8%

COc1cc(OC)c2c(c1)OCC/C(=C\c1ccccc1C(F)(F)F)C2=O
viability at 24 h, 5 µM [2]: 142% | inhibition at 5 µM (BV-2 [3]): 74.3%

COc1cncc(-c2nc(N)nc3c2CCc2ccc(F)cc2-3)c1
viability at 24 h, 5 µM [2]: 99.3% | inhibition at 5 µM (BV-2 [3]): 62.9%

COc1cc(OC)c2c(c1)OCCC1=C2NC(N)=NC1c1ccccc1F (stereo unspecified)
viability at 24 h, 5 µM [2]: 143% | inhibition at 5 µM (BV-2 [3]): 73.4%

COc1cc(OC)c2c(c1)OCC/C(=C\c1c(F)cccc1F)C2=O
viability at 24 h, 5 µM [2]: 146% | inhibition at 5 µM (BV-2 [3]): 62.5%

COc1cc(OC)c2c(c1)OCC/C(=C\c1cccc(F)c1C(F)(F)F)C2=O
viability at 24 h, 5 µM [2]: 120% | inhibition at 5 µM (BV-2 [3]): 68.3%

COc1cc(OC)c2c(c1)OCCC1=C2NC(N)=NC1c1c(F)cccc1F (stereo unspecified)
viability at 24 h, 5 µM [2]: 126% | inhibition at 5 µM (BV-2 [3]): 67.4%

COc1cc(OC)c2c(c1)OCC/C(=C\c1ccc(F)cc1C(F)(F)F)C2=O
viability at 24 h, 5 µM [2]: 114% | inhibition at 5 µM (BV-2 [3]): 69.5%

COc1cc(OC)c2c(c1)OCCC1=C2NC(N)=NC1c1ccccc1C(F)(F)F (stereo unspecified)
viability at 24 h, 5 µM [2]: 113% | inhibition at 5 µM (BV-2 [3]): 70.2%

COc1cc(OC)c2c(c1)OCC/C(=C\c1cc(F)cc(F)c1)C2=O
viability at 24 h, 5 µM [2]: 150% | inhibition at 5 µM (BV-2 [3]): 73.6%

COc1cc(OC)c2c(c1)OCCC1=C2NC(N)=NC1c1ccc(C(F)(F)F)cc1 (stereo unspecified)
viability at 24 h, 5 µM [2]: 150% | inhibition at 5 µM (BV-2 [3]): 72.1%

COc1cc(OC)c2c(c1)OCCC1=C2NC(N)=NC1c1ccc(F)cc1 (stereo unspecified)
viability at 24 h, 5 µM [2]: 157% | inhibition at 5 µM (BV-2 [3]): 56.8%
